Data: patent US20070167412A1, “HALOCOMBSTATINS AND METHODS OF SYNTHESIS THEREOF” (ARIZONA BOARD OF REGENTS, priority 2003, published 2007)
≈ marks a conversion by molar mass, not a printed value. Where two headings read alike, the source gives them in different places.

Experiments:
[1] = system: CNS SF268; experiment: human cancer cell growth inhibition, sulforhodamine B assay; format: cell-based; details: Table I, 48 hours; for GI50: Homo sapiens, SF-268, read-out: Human cancer cell line inhibition (GI50) CNS SF268
Procedure: (§1) Inhibition of human cancer cell growth was assessed using the National Cancer Institute's standard sulforhodamine B assay. After 48 hours, the plates were fixed with trichloracetic acid, stained with sulforhodamine B and read with an automated microplate reader. […] Inhibition of the mouse leukemia P388 cells was assessed in a 10% horse serum/Fisher medium soution for 24 hours, followed by a 48 hour incubation with serial dilutions of the compounds. Cell growth inhibition (ED50) was then calculated using a Z1 Becleman/Coulter particle counter.

[2] = system: Prostate DU-145; experiment: as above; format: cell-based; details: Table I, 48 hours; for GI50: Homo sapiens, DU-145, read-out: Human cancer cell line inhibition (GI50) Prostate DU-145
Procedure: as §1

[3] = system: Breast MCF-7; experiment: as above; format: cell-based; details: Homo sapiens, MCF7; Table I; 48 hours; read-out: Human cancer cell line inhibition (GI50) Breast adn MCF-7
Procedure: as §1

[4] = system: Lung-NSC NCI-H460; experiment: as above; format: cell-based; details: Table I, 48 hours; for GI50: Homo sapiens, NCI-H460, read-out: Human cancer cell line inhibition (GI50) Lung-NSC NCI-H460
Procedure: as §1

[5] = system: Colon KM20L2; experiment: as above; format: cell-based; details: Table I, 48 hours; for GI50: Homo sapiens, KM-20L2, read-out: Human cancer cell line inhibition (GI50) Colon KM20L2
Procedure: as §1

[6] = system: Pancreas BXPC-3; experiment: as above; format: cell-based; details: Table I, 48 hours; for GI50: Homo sapiens, BXPC-3, read-out: Human cancer cell line inhibition (GI50) Pancreas-a BXPC-3
Procedure: as §1

[7] = system: tubulin; experiment: inhibition of [3H]colchicine binding to tubulin; details: 1.0 μM tubulin, 5.0 μM [3H]colchicine, inhibitor at 1.0 μM, 10 minutes at 37° C.
Procedure: (§2) Tubulin polymerization was evaluated by turbidimetry at 350 nm using Beckman DU7400/7500 spectrophotometers as described in detail elsewhere. […] Varying concentrations of drug were preincubated with 10 μM:M ([…]) purified tubulin (See Hamel, E., et al., Separation of Active Tubulin and Microtubule-associated Proteins by Ultracentrifiigation and Isolation of a Component Causing the Formation of Microtubule Bundles, Biochemistry 1984, 23, 4173-4184). Samples were chilled on ice, GTP (0.4 mM) was added, and polymerization was followed at 30° C. The parameter measured was extent of the reaction after 20 minutes. Coichicine binding was measured as described in detail previously. Reaction mixtures contained 1.0 μM :M tubulin, 5.0:M, [^3H]colchicine (from Dupont), and inhibitor at 1.0 μM:M. Incubation was for 10 minutes at 37° C.

[8] = system: Cryptococcus neoformans; experiment: reference broth microdilution susceptibility assay; format: cell-based; details: Table III
Source text: (§3) The halocombstatins of the present invention appear to also have antimicrobial properties. More specifically, they appear to have antifungal and/or antibacterial properties. Antimicrobial evaluation of the halocombstatins involved susceptibility testing performed by the reference broth microdilution assay. The antimicrobial activities of the halocombstatins were very similar, targeting Gram-positive bacteria and the pathogenic fungi Cryptococcus neoformans, and results are shown in Table III.
(§4) (See Pettit, G. R., et al., Antineoplastic Agents 463. Synthesis of Combretastatin A-3 Diphosphates, Anticancer Drug Design 2000, 15, 397-404.) To determine the antimicrobial activity of the present compounds, susceptibility testing was performed by the reference broth microdilution assay. (See National Committee for Clinical Laboratory Standards. Methods for Dilution Antimicrobial Susceptibility Tests for Bacteria that Grow Aerobically. Approved Standard M7-A5. Wayne, P A: NCCLS, 2000. National Committee for Clinical Laboratory Standards. Reference Method for Broth Dilution Antifungal Susceptibility Testing of Yeasts. Aproved Standard M27-A. Wayne, P A: NCCLS, 1997.) The antimicrobial activities of the halocombretastatins of the present invention were very similar, targeting Gram-positive bacteria and Cryptococcus neoformans. This is illustrated in further detail in Table III. Thus, several of the novel compounds of the present invention appear to have potential as antimicrobial agents, such as antifingals and antibacterials.

[9] = system: Streptococcus pneumoniae; experiment: reference broth microdilution susceptibility assay; format: cell-based; details: Table III
Source text: as §3, §4

[10] = system: Enterobacter cloacae; experiment: reference broth microdilution susceptibility assay; format: cell-based; details: Table III
Source text: as §3, §4

[11] = system: Stenotrophomonas maltophilia; experiment: reference broth microdilution susceptibility assay; format: cell-based; details: Table III
Source text: as §3, §4

[12] = system: Escherichia coli; experiment: reference broth microdilution susceptibility assay; format: cell-based; details: Table III
Source text: as §3, §4

[13] = system: Enterococcus faecalis; experiment: reference broth microdilution susceptibility assay; format: cell-based; details: Table III
Source text: as §3, §4

[14] = system: Neisseria gonorrhoeae; experiment: reference broth microdilution susceptibility assay; format: cell-based; details: Table III
Source text: as §3, §4

[15] = system: Staphylococcus aureus; experiment: reference broth microdilution susceptibility assay; format: cell-based; details: Table III
Source text: as §3, §4

[16] = system: Candida albicans; experiment: reference broth microdilution susceptibility assay; format: cell-based; details: Table III
Source text: as §3, §4

[17] = system: Micrococcus luteus; experiment: reference broth microdilution susceptibility assay; format: cell-based; details: Table III
Source text: as §3, §4

[18] = system: T1, purified tubulin; experiment: inhibition of tubulin polymerization (turbidimetry); format: biochemical
T1 construct: other: 10 μM tubulin, GTP 0.4 mM, 30° C., extent after 20 minutes
Procedure: as §2
Tubulin Evaluations: Tubulin polymerization was evaluated by turbidimetry at […] using Beckman DU7400/7500 spectrophotometers as known to one of skill in the art. Varying concentrations of the compound were preincubated with 10 μM. […]

Molecule	GI50 [1]	GI50 [2]	GI50 [3]	GI50 [4]	GI50 [5]	GI50 [6]	melting point	Inhibition of colchicine binding % inhibition ± S.D. [7]	Range of minimum inhibitory concentration, Cryptococcus neoformans [8]	Range of minimum inhibitory concentration, Streptococcus pneumoniae [9]	Range of minimum inhibitory concentration, Enterobacter cloacae [10]	Range of minimum inhibitory concentration, Stenotrophomonas maltophilia [11]	Range of minimum inhibitory concentration, Escherichia coli [12]	Range of minimum inhibitory concentration, Enterococcus faecalis [13]	Range of minimum inhibitory concentration, Neisseria gonorrhoeae [14]	Range of minimum inhibitory concentration, Staphylococcus aureus [15]	Range of minimum inhibitory concentration, Candida albicans [16]	Range of minimum inhibitory concentration, Micrococcus luteus [17]	further results
COc1ccc(/C=C/c2cc(Cl)c(OC)c(OC)c2)cc1O [Compound 12b, 3-Chloro-4,4′,5-trimethoxy-3′-hydroxy-E-stilbene]	0.048 µg/mL (≈ 0.15 µM)	0.038 µg/mL (≈ 0.118 µM)	0.041 µg/mL (≈ 0.128 µM)	0.034 µg/mL (≈ 0.106 µM)	1.4 µg/mL (≈ 4.36 µM)	0.59 µg/mL (≈ 1.84 µM)	138 to 140 °C	–	–	–	–	–	–	–	–	–	–	–	–
COc1ccc(/C=C\c2cc(Br)c(OC)c(OC)c2)cc1O [Compound 13a, 3-Bromo-4,4′,5-trimethoxy-3′-hydroxy-Z-stilbene]	< 0.001 µg/mL	< 0.001 µg/mL	< 0.001 µg/mL	< 0.001 µg/mL	0.086 µg/mL (≈ 0.235 µM)	0.16 µg/mL (≈ 0.438 µM)	108 to 109 °C	89 ± 2%	* (no inhibition at 64 μg/ml)	* (no inhibition at 64 μg/ml)	* (no inhibition at 64 μg/ml)	* (no inhibition at 64 μg/ml)	* (no inhibition at 64 μg/ml)	* (no inhibition at 64 μg/ml)	32 to 64 µg/mL	* (no inhibition at 64 μg/ml)	* (no inhibition at 64 μg/ml)	32 to 64 µg/mL	IC50 ([18]; 10 μM tubulin, GTP 0.4 mM, 30° C., extent after 20 minutes, read-out: Inhibition of polymerization IC50 ± S.D.): 1500 ± 200 nM
COc1ccc(/C=C/c2cc(I)c(OC)c(OC)c2)cc1O [Compound 14b, 3-Iodo-4,4′,5-trimethoxy-3′-hydroxy-E-stilbene]	0.55 µg/mL (≈ 1.33 µM)	0.27 µg/mL (≈ 0.655 µM)	0.18 µg/mL (≈ 0.437 µM)	0.21 µg/mL (≈ 0.509 µM)	1.7 µg/mL (≈ 4.12 µM)	2.7 µg/mL (≈ 6.55 µM)	111 to 113 °C	–	64 µg/mL	* (no inhibition at 64 μg/ml)	* (no inhibition at 64 μg/ml)	* (no inhibition at 64 μg/ml)	* (no inhibition at 64 μg/ml)	* (no inhibition at 64 μg/ml)	4 to 16 µg/mL	8 to 64 µg/mL	* (no inhibition at 64 μg/ml)	4 to 8 µg/mL	–
COc1ccc(/C=C\c2cc(I)c(OC)c(I)c2)cc1C(C)=O [Compound 22c, 3,5-diiodo-4,4′-dimethoxy-3′-acetyl-z-stilbene]	–	–	–	–	–	–	121 to 122 °C	–	–	–	–	–	–	–	–	–	–	–	–
combretastatin A-4 [Compound 1a, reference compound]	–	–	–	–	–	–	–	81 ± 3%	–	–	–	–	–	–	–	–	–	–	Human cancer cell line inhibition (GI50) CNS SF268 [1]: <0.001 µg/mL; Human cancer cell line inhibition (GI50) Prostate DU-145 [2]: 0.0008 µg/mL; Human cancer cell line inhibition (GI50) Lung-NSC NCI-H460 [4]: 0.0006 µg/mL; Human cancer cell line inhibition (GI50) Colon KM20L2 [5]: 0.061 µg/mL; Human cancer cell line inhibition (GI50) Pancreas-a BXPC-3 [6]: 0.39 µg/mL; IC50 ([18]; text b32, read-out: IC50, inhibition of the polymerization reaction): 1800 nM
